Test results: US20040058984A1, “Stabilization of radiopharmaceutical compositions using hydrophilic thioethers and hydrophilic 6-hydroxy chromans” (priority 2003, published 2004)

How the values were obtained:
[1] = HPLC RCP of 99mTc-depreotide with hydrophilic thioether additives (Example 8); format: physicochemical; details: for effect on 99mTc-labelled peptide radiolabelling yield or stability: 99mTc-depreotide; for 3.5 hr RCP / 6.5 hr RCP / Initial RCP: 99mTc-depreotide kit, additive 4 mg, heated prep
Protocol: Each hydrophilic thioether was dissolved in water made up at 40 mg/mL and adjusted to pH 7 with HCl or NaOH. […] To the control vials were added 100 μL water.

[2] = HPLC RCP of 99mTc-labelled bisamine bisthiol non-peptide chelator with L-methionine (Example 7); format: physicochemical
Text: The non-peptide chelator was radiolabelled with ^99mTc in the presence and absence of L-methionine using the placebo vial heated preparation procedure as described in Example 6.

[3] = HPLC RCP of 99mTc-depreotide kits with L-methionine (Example 2); details: formulated kits stored under normal conditions (≦−10° C.)
Protocol: Lyophilized kit vials were prepared containing depreotide, L-methionine (Met), and other components as described in Table 3. All formulations were adjusted to pH 7.4 prior to lyophilization.
The lyophilized kits were radiolabelled with ^99mTc by reconstitution with 1.0 mL technetium ^99mTc sodium pertechnetate (Technelite®) containing approximately 50 mCi ^99mTc and heating in a boiling water bath for 10 minutes. Some of the formulations were also radiolabelled in a room temperature preparation (allowed to stand at rom temperature 30 minutes following reconstitution).

[4] = HPLC RCP of 99mTc-labelled glycoprotein IIb/IIIa receptor-binding peptide with L-methionine (Example 5); format: physicochemical
Protocol: Lyophilized kit vials were prepared containing the peptide (50 μg), sodium glucoheptonate dihydrate (10 mg), stannous chloride dihydrate (50 μg), and edetate disodium dihydrate (100 μg). The formulation was adjusted to pH 7.4 prior to lyophilization.
The lyophilized kits were radiolabelled with ^99mTc in the presence and absence of L-methionine. […] Both vials were then reconstituted with 1.0 mL technetium ^99mTc sodium pertechnetate (Technelite®) containing approximately 50 mCi ^99mTc and allowed to incubate for 30 minutes at room temperature.

[5] = HPLC RCP of 99mTc-labelled benzodiazepinedione derivative kits with L-methionine (Example 4); format: physicochemical; details: formulated kits
Protocol: L-methionine was tested for its ability to stabilize a ^99mTc-labelled glycoprotein IIb/IIIa receptor-binding benzodiazepinedione derivative 1-[(carboxyglycyl-glycyl-glycyl-cysteinamide)methyl]-4-(2-carboxyethyl)-7-[(4-amidinophenyl)methyl]-3,4-dihydro-1H-1,4-benzodiazepine-2,5-dione trifluoroacetate, having the structure. [drawing 15]
All formulations were adjusted to pH 7.4 prior to lyophilization.
The lyophilized kits were radiolabelled with ^99mTc by reconstitution with 1.0 mL technetium ^99mTc sodium pertechnetate (Technelite®) containing approximately 50 mCi ^99mTc and heating in a boiling water bath for 10 minutes.

| 3.5 hr RCP [1] | 6.5 hr RCP [1] | Initial RCP [1] | SMILES | effect on 99mTc-labelled peptide radiolabelling yield or stability [1] | effect on radiolabelling yield and stability of a 99mTc-labelled non-peptide chelator [2] | effect on radiolabelling yield and stability of 99mTc-depreotide [3] | effect on radiolabelling yield and stability of the 99mTc-peptide [4] | effect on radiolabelling yield and stability of the 99mTc-labelled benzodiazepinedione derivative [5] |
| --- | --- | --- | --- | --- | --- | --- | --- | --- |
| 94.2 | 93.3 | 92.8 | CCSCCN [2-(Ethylthio)ethylamine] | increase the radiolabelling yield and the stability |  |  |  |  |
|  |  |  | CSCCC=O [3-(methylthio)propionaldehyde, reference compound] | no effect |  |  |  |  |
| 84.0 | 80.9 | 89.1 | CSCC(O)CO (stereo not shown) [3-Methylthio-1,2-propanediol, 3-methylthio-1,2-propanediol] | increase the radiolabelling yield and the stability |  |  |  |  |
|  |  |  | C[S+]([O-])CC[C@H](N)C(=O)O (stereo partly shown) [Methionine sulfoxide, reference compound] | no effect |  |  |  |  |
| 93.9 | 90.7 | 94.1 | CSCC[C@H](N)CO [Methioninol, methioninol] | increase the radiolabelling yield and the stability |  |  |  |  |
|  |  |  | CS(=O)(=O)CC[C@H](N)C(=O)O [methionine sulfone, reference compound] | no effect |  |  |  |  |

| SMILES | 3.5 hr RCP [1] | 6.5 hr RCP [1] | Initial RCP [1] | effect on 99mTc-labelled peptide radiolabelling yield or stability [1] | effect on radiolabelling yield and stability of a 99mTc-labelled non-peptide chelator [2] | effect on radiolabelling yield and stability of 99mTc-depreotide [3] | effect on radiolabelling yield and stability of the 99mTc-peptide [4] | effect on radiolabelling yield and stability of the 99mTc-labelled benzodiazepinedione derivative [5] |
| --- | --- | --- | --- | --- | --- | --- | --- | --- |
| CSCC[C@H](N)C(=O)O [L-methionine] | 90.4 | 89.3 | 95.0 |  | increases the radiolabelling yield and the stability | increases the radiolabelling yield and the stability | increases the radiolabelling yield and the stability | increases the radiolabelling yield and the stability |
